Reference: patent US8912121B2, “Herbicidal compositions comprising 4-amino-3-chloro-5-fluoro-6-(4-chloro-2-fluoro-3-methoxyphenyl)pyridine-2-carboxylic acid or a derivative thereof and certain PS II inhibitors” (Dow Agrosciences LLC, priority 2012, dated 2014)

Assays:
[1] = tested on: IPOHE (Ipomoea hederacea, ivyleaf morningglory); experiment: Postemergence foliar-applied mixtures, direct seeded rice, greenhouse; assay type: in vivo, Ipomoea hederacea Jacq.; conditions: post-emergence
Text: (§1) Seeds or nutlets of the desired test plant species were planted in a soil matrix prepared by mixing a loam or sandy loam soil (e.g., 28.6 percent silt, 18.8 percent clay, and 52.6 percent sand, with a pH of about 5.8 and an organic matter content of about 1.8 percent) and calcareous grit in an 80 to 20 ratio. The soil matrix was contained in plastic pots with a volume of 1 quart and a surface area of 83.6 square centimeters (cm^2). When required to ensure good germination and healthy plants, a fungicide treatment and/or other chemical or physical treatment was applied. The plants were grown for 8-22 days in a greenhouse with an approximate 14 h photoperiod which was maintained at about 29° C. during the day and 26° C. during the night. Nutrients (Peters Excel® 15-5-15 5-Ca 2-Mg and iron chelate) were applied in the irrigation solution as needed and water was added on a regular basis. Supplemental lighting was provided with overhead metal halide 1000-Watt lamps as necessary. The plants were employed for testing when they reached the first through fourth true leaf stage.
(§2) Treatments consisted of the acid or esters of 4-amino-3-chloro-5-fluoro-6-(4-chloro-2-fluoro-3-methoxy-phenyl) pyridine-2-carboxylic acid (Compound A), each formulated as an SC (suspension concentrate), and various herbicidal components alone and in combination. Forms of compound A were applied on an acid equivalent basis.
(§3) Other herbicidal components were applied on an active ingredient basis and included Photosystem II (PSII)-inhibiting herbicides propanil formulated as Stam® M4 EC, bentazon-sodium formulated as Basagran®, atrazine formulated as Atrazine 90 WDG, bromoxynil octanoate ester formulated as Buctril®, simetryne (technical grade material), simazine formulated as Princep® Caliber 90, ioxynil (technical grade material), cyanazine (technical grade material), and hexazinone (technical grade material).
(§4) Treatment requirements were calculated based upon the rates being tested, the concentration of active ingredient or acid equivalent in the formulation, and a 12 mL application volume at a rate of 187 L/ha.
(§5) For treatments comprised of formulated compounds, measured amounts of compounds were placed individually in 25 mL glass vials and diluted in a volume of 1.25% (v/v) Agri-Dex® crop oil concentrated to obtain 12× stock solutions. […] Application solutions were prepared by adding an appropriate amount of each stock solution (e.g., 1 mL) and diluted to the appropriate final concentrations with the addition of 10 mL of an aqueous mixture of 1.25% (v/v) crop oil concentrate so that the final spray solutions contained 1.25+/−0.05% (v/v) crop oil concentrate.
(§6) For treatments comprised of technical compounds, weighed amounts can be placed individually in 25 mL glass vials and dissolved in a volume of 97:3 v/v acetone/DMSO to obtain 12× stock solutions. […] Application solutions can be prepared by adding an appropriate amount of each stock solution (e.g., 1 mL) and diluted to the appropriate final concentrations with the addition of 10 mL of an aqueous mixture of 1.5% (v/v) crop oil concentrate so that the final spray solutions contain 1.25% (v/v) crop oil concentrate. When technical materials are used, the concentrated stock solutions can be added to the spray solutions so that the final acetone and DMSO concentrations of the application solutions are 16.2% and 0.5%, respectively.
(§7) For treatments comprised of formulated and technical compounds, weighed amounts of the technical materials were placed individually in 25 mL glass vials and dissolved in a volume of 97:3 v/v acetone/DMSO to obtain 12× stock solutions, and measured amounts of the formulated compounds were placed individually in 25 mL glass vials and diluted in a volume of 1.5% (v/v) crop oil concentrate or water to obtain 12× stock solutions. […]

[2] = tested on: BRAPP (Brachiaria platyphylla, broadleaf signalgrass); experiment: Pre-emergence soil-applied mixtures, greenhouse; assay type: in vivo, Brachiaria platyphylla (Groseb.) Nash; conditions: 27 DAA
Text: (§8) Seeds or nutlets of the desired test plant species were planted in a soil matrix prepared by mixing a loam soil (32 percent silt, 23 percent clay, and 45 percent sand, with a pH of about 6.5 and an organic matter content of about 1.9 percent) and calcareous grit in an 80 to 20 ratio. The soil matrix was contained in plastic pots with a volume of 1 quart and a surface area of 83.6 square centimeters (cm^2).
(§9) Treatments consisted of the benzyl ester of 4-amino-3-chloro-5-fluoro-6-(4-chloro-2-fluoro-3-methoxy-phenyl)pyridine-2-carboxylic acid (compound A) formulated as an SC (suspension concentrate) and various herbicidal components alone and in combination. Forms of compound A were applied on an acid equivalent basis.
(§10) Other herbicidal components were applied on an acid equivalent or active ingredient basis and included the PSII-inhibiting herbicides, atrazine formulated as Atrazine® 90WDG, metribuzin formulated as Metribuzin 75DF, simazine formulated as Princep Caliber 90, tebuthiuron formulated as Spike 80DF, cyanazine (technical grade material), hexazinone (technical grade material), linuron (technical grade material), terbuthylazine (technical grade material), and diuron formulated as Diuron 4L.
as §4
as §5, with “oil concentrate (COC)” for “oil concentrated”, “(v/v) COC” for “(v/v) crop oil concentrate”, “contained 1.25%” for “contained 1.25+/−0.05%”, “(v/v) COC.” for “(v/v) crop oil concentrate.”
as §6, with “97:3 (v/v)” for “97:3 v/v”, “(v/v) COC” for “(v/v) crop oil concentrate”, “(v/v) COC.” for “(v/v) crop oil concentrate.”
(§11) For treatments comprised of formulated and technical compounds, weighed amounts of the technical materials can be placed individually in 25 mL glass vials and dissolved in a volume of 97:3 (v/v) acetone/DMSO to obtain 12× stock solutions, and measured amounts of the formulated compounds can be placed individually in 25 mL glass vials and diluted in a volume of 1.5% (v/v) COC or water to obtain 12× stock solutions. […] Application solutions can be prepared by adding an appropriate amount of each stock solution (e.g., 1 mL) and diluted to the appropriate final concentrations with the addition of an appropriate amount of an aqueous mixture of 1.5% (v/v) COC so that the final spray solutions contain 1.25% (v/v) COC. As required, additional water and/or 97:3 (v/v) acetone/DMSO can be added to individual application solutions so that the final acetone and DMSO concentrations of the application solutions being compared are 8.1% and 0.25%, respectively.
(§12) All stock solutions and applications solutions were visually inspected for compound compatibility prior to application. Spray solutions were applied to the soil with an overhead Mandel track sprayer equipped with a 8002E nozzles calibrated to deliver 187 L/ha over an application area of 0.503 m^2 at a spray height of 18 inches (46 cm) above average pot height. […]

[3] = tested on: ECHCG (Echinochloa crusgalli, barnyardgrass); experiment: Postemergence foliar-applied mixtures, direct seeded rice, greenhouse; assay type: in vivo, Echinochloa crusgalli (L.) Beauv.; conditions: 625 g ai/ha; 21 DAA
Description: as §1, with “When required to ensure good germination and healthy plants, a fungicide treatment and/or other chemical or physical treatment was applied.” left out
as §2, §3, §5, §6
For treatments comprised of formulated and technical compounds, weighed amounts of the technical materials were placed individually in 25 mL glass vials and dissolved in a volume of 97:3 v/v acetone/DMSO to obtain 12× stock solutions, and measured amounts of the formulated compounds were placed individually in 25 mL glass vials and diluted in a volume of 1.5% (v/v) crop oil concentrate or water to obtain 12× stock solutions. […] Application solutions were prepared by adding an appropriate amount of each stock solution (eg, 1 mL) and diluted to the appropriate final concentrations with the addition of an appropriate amount of an aqueous mixture of 1.5% (v/v) crop oil concentrate so that the final spray solutions contained 1.25% (v/v) crop oil concentrate.

[4] = tested on: ECHCO (Echinochloa colona, junglerice); experiment: as above; assay type: in vivo, Echinochloa colona (L.) Link; conditions: 21 DAA
Text: as §1, §2, §3, §4, §5, §6, §7

[5] = tested on: XANST (Xanthium strumarium, common cocklebur); experiment: Pre-emergence soil-applied mixtures, greenhouse; assay type: in vivo, Xanthium strumarium L.; conditions: Terbuthylazine 1000 g ai/ha; 27 DAA
Text: as §8, §9, §10, §4
as §5, with “oil concentrate (COC)” for “oil concentrated”, “(v/v) COC” for “(v/v) crop oil concentrate”, “contained 1.25%” for “contained 1.25+/−0.05%”, “(v/v) COC.” for “(v/v) crop oil concentrate.”
as §6, with “97:3 (v/v)” for “97:3 v/v”, “(v/v) COC” for “(v/v) crop oil concentrate”, “(v/v) COC.” for “(v/v) crop oil concentrate.”
as §11, §12

**Q.** Which pest or weed control at 275 g/ha ([1]; 480 h, read-out: Visual Weed Control (%) Obs, 275 g ai/ha, 20 DAA) does the source give for `CCNc1nc(Cl)nc(NC(C)(C)C#N)n1` [Cyanazine, 2-[[4-chloro-6-(ethylamino)-1,3,5-triazin-2-yl]amino]-2-methylpropanenitrile] here?
**A.** Its pest or weed control at 275 g/ha is 50%.

**Q.** What about the “Visual Weed Control (%) - 27 DAA BRAPP Obs” value ([2]; Cyanazine 170 g ai/ha) of the same compound?
**A.** The value was 0%.

**Q.** What about the “Visual Weed Control (%) - 27 DAA BRAPP Obs” value ([2]; Cyanazine 440 g ai/ha) of the same compound?
**A.** Its value is 15%.

**Q.** What about the “Visual Weed Control (%) - 27 DAA BRAPP Obs” value ([2]; Cyanazine 880 g ai/ha) of the same compound?
**A.** Its value is 10%.

**Q.** How did the “Visual Weed Control (%) Obs” value [3] turn out when `CN(C)c1nc(=O)n(C2CCCCC2)c(=O)n1C` [Hexazinone, 3-cyclohexyl-6-(dimethylamino)-1-methyl-1,3,5-triazine-2,4(1H,3H)-dione, reference compound] was run?
**A.** The value was 20%.

**Q.** What about the “Visual Weed Control (%) Obs” value ([4]; 625 g ai/ha) of the same compound?
**A.** Its value is 25%.

**Q.** What about the “Visual Weed Control (%) Obs” value ([4]; 1250 g ai/ha) of the same compound?
**A.** The value was 55%.

**Q.** And the pest or weed control at 625 g/ha ([1]; 504 h, 625 g ai/ha, 21 DAA, read-out: Visual Weed Control (%) Obs)?
**A.** The pest or weed control at 625 g/ha was 80%.

**Q.** How did the pest or weed control at 300 g/ha ([1]; 480 h, read-out: Visual Weed Control (%) Obs, 300 g ai/ha, 20 DAA) turn out when `N#Cc1cc(I)c(O)c(I)c1` [Ioxynil, 4-hydroxy-3,5-diiodobenzonitrile, reference compound] was run?
**A.** The pest or weed control at 300 g/ha was 50%.

**Q.** `CON(C)C(=O)Nc1ccc(Cl)c(Cl)c1` [Linuron, N′-(3,4-dichlorophenyl)-N-methoxy-N-methylurea] was tested. Which “Visual Weed Control (%) - 27 DAA BRAPP Obs” value ([2]; Linuron 620 g ai/ha) did it give?
**A.** The value was 0%.

**Q.** For `CCNc1nc(Cl)nc(NC(C)(C)C)n1` [Terbuthylazine, 6-chloro-N-(1,1-dimethylethyl)-N′-ethyl-1,3,5-triazine-2,4-diamine, reference compound], which “Visual Weed Control (%) - 27 DAA XANST Obs” value [5] is on record?
**A.** Its value is 45%.
